# Reference: patent US20210267978A1, “NANOPARTICLE FORMULATIONS OF IKE AND METHODS OF USE THEREOF” (The Trustees of Columbia University in the City of New York, priority 2018, published 2021)
# Assays:
# [1] = tested on: SUDHL6 cells; experiment: Reduced glutathione measurement in cell culture (Fluorometric-Green); type: cell-based; details: 10 μM β-ME co-treatment, 24 h
# Description: 2.4 million cells were incubated with DMSO, IKE, or β-mercaptoethanol (β-Me) at a density of 0.2 million cells/mL for 24 h. Cells were collected and washed with cold PBS once. Cell number was counted by Vi-Cell. Cells were resuspended in ice cold RIPA buffer (Thermo Fisher Scientific, 89900) with 100 μL/one million cells. Samples were centrifuged for 15 min at 4° C. at 17,000×g. The resulting supernatant was deproteinized using a trichloroacetic acid and sodium bicarbonate solution and kept on ice. The sample was diluted with assay buffer provided in GSH/GSSG Ratio Detection Assay Kit (Abcam, ab13881) ten-fold. Reduced glutathione (GSH) levels were determined using Fluorometric-Green provided in the kit following the manufacture's protocol. 384-well (Corning) low volume black flat bottom polystyrene non-treated microplates 1230F99 were used in this experiment.
# [2] = tested on: SUDHL6 cells; experiment: qPCR analysis of gene expression in cell culture; type: cell-based; details: SUDHL6 cells
# Description: To perform qPCR analysis in cell culture, DLBCL cells were treated with 0-10 μM IKE, Fer-1, or β-Me for the indicated times. RNA was extracted using the Qiashredder and Qiagen RNeasy Mini kits (Qiagen) according to the manufacture's protocol. 2 μg RNA from each sample was reversed transcribed to cDNA using a High Capacity cDNA Reverse Transcription Kit (Thermo Fisher Scientific, 4368814). Quantitative PCR reactions were performed using Power SYBR Green PCR Master Mix (Applied Biosystems) with triplicate measurement on ViiA 7 Real-Time PCR instrument (Thermo Fischer). HPRT1 was used as an internal reference. Differences in mRNA levels compared with HPRT1 were computed between vehicle and experimental groups using the ΔΔCt method. The primers used in the study were listed below.
# [3] = tested on: SUDHL-6 cells; experiment: Free fatty acid cell survival test with or without IKE (CellTiter-Glo); type: cell-based; details: for toxicity of free fatty acid to cells: 100 μM, 24 hours; for effect of free fatty acid on IKE-induced ferroptosis: 10 μM fatty acid with IKE
# Excerpt: Relative Area Under Curve (AUC) to DMSO cotreatment was used to indicate the sensitization or protection effect of free fatty acids to IKE-induced ferroptosis.
# [4] = tested on: GSH; details: Narang et al., 2007; Lo et al., 2010; cited from earlier work
# [5] = tested on: DLBCL cell lines; experiment: Fer-1 co-treatment rescue of IKE-induced cell death (CellTiter-Glo); type: cell-based; details: co-treatment with IKE, 24 hours
# Description: The cell viability was measured by co-treating cells with a two-fold series dilution of IKE (starting from 100 μM) and two-fold series dilution of Fer-1 (starting from 200 μM) for 24 hours followed by a Cell Titor-Glo luminescent cell viability test. […] Data are plotted as the mean±s.d., n=2 biologically replicates. Three independent experiments were performed with similar results.
# DLBCL cells were plated at 10,000 cells per well in white 384-well plates (32 μL per well) in technical duplicates and incubated overnight. The cells were then treated with 8 μL medium containing a two-fold dilution series of vehicle (DMSO), IKE (starting from 100 μM) with or without Fer-1 (starting from 200 μM). After 24 h incubation, 40 μL of 50% CellTiter-Glo (Promega) 50% cell culture medium was added to each well and incubated at room temperature with shaking for 15 min. Luminescence was measured using a Victor X5 plate reader (PerkinElmer). All cell viability data were normalized to the DMSO vehicle condition. Experiments were performed three independent times with different passages for each cell line.
# [6] = tested on: SUDHL6 cells; experiment: C-11 BODIPY lipid peroxidation measurement (flow cytometry); type: cell-based; details: 10 μM fer-1 co-treatment
# Description: 0.20 million SUDHL-6 cells were seeded in sixc^− well plates and treated with DMSO, IKE, or Fer-1 at specific concentration. The final cell density of 0.05 million cells/mL. After 24 h, cells were harvested by centrifuging at 300×g for 5 min. Cells were resuspended in 500 μL HBSS containing 2 μM C11-BODIPY (BODIPY 581/591 C11) (Thermo Fisher Scientific, D3861) and incubated at 37° C. for 15 min. Cells were pelleted and resuspended in HBSS. Fluorescence intensity was measured on the FL1 channel with gating to record live cells only (gate constructed from DMSO treatment group). A minimum of 10,000 cells were analyzed per condition.
# [7] = tested on: SUDHL 6 cells; experiment: Measurement of IKE PEG-PLGA cellular activity (CellTiter-Glo, 24 h); type: cell-based; details: fer-1 co-treatment
# Description: DLBCL cells or HT-1080 cells were plated at 2,000 cells per well in white 384-well plates (32 μL per well) in technical duplicates and incubated overnight. The cells were then treated with 8 μL medium containing a two-fold dilution series of vehicle 1 (DMSO), IKE, Fer-1, vehicle 2 (unfunctional PEG-PLGA nanoparticles), or IKE PEG-PLGA nanoparticles. The final concentration of IKE in PEG-PLGA nanoparticles were measured by LC-MS as described in the sections below. After 24 h incubation with compounds, 40 μL of 50% CellTiter-Glo (Promega) 50% cell culture medium was added to each well and incubated at room temperature with shaking for 15 min. Luminescence was measured using a Victor X5 plate reader (PerkinElmer). All cell viability data were normalized to the DMSO vehicle condition. Experiments were performed in three independent times with different passages for each cell line.
# [8] = Erastin and IKE solubility measurements (nephelometry); type: physicochemical
# Description: Solubility measurement samples were prepared in a 96-well Corning Costar plate with two at 1% and 5% DMSO v/v with a total sample volume of 200 μL in MilliQ water. A BMG Labtech NEPHELOstar nephelometer was used to measure turbidity of the samples with the following parameters per the instrument manufacturer: Gain=80, Laser Focus=2.50 mm, and Laser Intensity=90%. Samples were shaken in the nephelometer by orbital shaking for 3 s prior to the turbidity measurement. Sample values were blanked in the instrument software using the corresponding water and DMSO condition values. Turbidity 4000 NTU Calibration Standard-Formazin (Millipore-Sigma) was used as a positive control for all turbidity measurements. The turbidity of each sample was measured within 20 minutes of initial preparation. After the initial measurement, the sample plates were covered with aluminum sealing film and allowed to sit overnight at room temperature prior to re-measuring.
smiles,measurement,setting,value
"OCCS [β-ME, β-mercaptoethanol, reference compound]",effect of co-treatment on GSH depletion by IKE,[1],reversed
same,"effect of co-treatment on IKE-induced upregulation of SLC7A11, CHAC1 and PTGS2 mRNAs",[2]; 10 μM β-Me with 500 nM IKE for 6 hours,prevented
CCCCC/C=C\C/C=C\C/C=C\C/C=C\CCCC(=O)O [arachidonic acid],toxicity of free fatty acid to cells,[3],toxic to cells
CCCCCCCC/C=C\CCCCCCCC(=O)O [oleic acid],effect of free fatty acid on IKE-induced ferroptosis,[3],protected against ferroptosis
O=C(O)c1cc(/N=N/c2ccc(S(=O)(=O)Nc3ccccn3)cc2)ccc1O [sulfasalazine],IC50 for GSH depletion,[4],millimolar range
"CCOC(=O)c1ccc(NC2CCCCC2)c(N)c1 [fer-1, ferrostatin-1, reference compound]",effect of co-treatment on cell death induced by IKE,[5],rescued cell death
same,effect of co-treatment on IKE-induced lipid ROS signal (C11-BODIPY),[6],inhibited this signal
same,effect of co-treatment on IKE-induced PTGS2 upregulation,[2]; 10 μM Fer-1 with 500 nM IKE for 6 hours,prevented
same,effect of co-treatment on IKE-induced CHAC1 upregulation,[2]; Fer-1 co-treatment,did not inhibit
same,effect of co-treatment on cell death induced by IKE and IKE PEG-PLGA NPs,[7],rescued cell death
"CCOc1ccccc1-n1c(C(C)N2CCN(C(=O)COc3ccc(Cl)cc3)CC2)nc2ccccc2c1=O (stereo not shown) [erastin, reference compound]",water solubility (in words),[8],low water solubility
CCCCCC/C=C\CCCCCCCC(=O)O [palmitoleic acid],effect of free fatty acid on IKE-induced ferroptosis,[3],protected against ferroptosis
CCCCC/C=C\C/C=C\C/C=C\CCCCC(=O)O [γ-linolenic acid],toxicity of free fatty acid to cells,[3],toxic to cells
